{"source": "patent US7378114B2", "about": "“Method for producing soluble composition containing isoflavones” (Fuji Oil Company, Limited, priority 2001, dated 2008)", "origin": "cited, not measured here", "details": "under 25° C.; according to the literature; per 100 g solvent", "data": [{"smiles": "O=c1c(-c2ccccc2)coc2ccccc12", "note": "[isoflavone]", "values": [{"measurement": "solubility in water", "result": "0.002 to 0.003", "unit": "g"}]}]}
